target: T1, GCS (Canis lupus familiaris, UniProt A0A8I3MXG6); test: Assay 1: GCS Enzymatic Assay (MDCK cell lysate, C6-NBD-Ceramide, LC/MS); type: biochemical, canine; conditions: Table 2; data without asterisk; read-out: IC50 (nM) generated from Assay 1
T1 sequence (A0A8I3MXG6 1-394): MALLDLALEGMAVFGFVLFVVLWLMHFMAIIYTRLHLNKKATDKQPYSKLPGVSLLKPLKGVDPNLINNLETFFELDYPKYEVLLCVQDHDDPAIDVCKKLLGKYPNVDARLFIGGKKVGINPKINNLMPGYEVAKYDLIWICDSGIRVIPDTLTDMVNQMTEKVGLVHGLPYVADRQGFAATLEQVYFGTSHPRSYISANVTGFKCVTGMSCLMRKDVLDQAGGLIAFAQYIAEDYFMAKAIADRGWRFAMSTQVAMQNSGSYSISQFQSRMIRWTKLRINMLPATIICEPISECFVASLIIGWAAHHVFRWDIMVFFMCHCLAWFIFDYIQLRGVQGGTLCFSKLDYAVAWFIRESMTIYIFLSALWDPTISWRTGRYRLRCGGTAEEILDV
Outline: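 LC/MS/MS measurement of glucosylceramide and NBD-ceramide after a 1 h, 37 °C reaction with 100 μM UDP-glucose and 10 μM C6-NBD-ceramide gave IC50s or percent inhibition.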

Row | SMILES | IC50
1 | COc1cc([C@@H](O)[C@@H](CN2CCCC2)NC(=O)C(=O)c2cc3ccc(Cl)cc3s2)cc(F)c1OC(C)C [Example 348, 2-(6-chlorobenzo[b]thiophen-2-yl)-N-((1R,2R)-1-(3-fluoro-4-isopropoxy-5-methoxyphenyl)-1-hydroxy-3-(pyrrolidin-1-yl)propan-2-yl)-2-oxoacetamide] | 50 to 5000 nM
2 | O=C(N[C@H](CN1CCCC1)[C@H](O)c1cc(F)c2c(c1)OCCO2)C(=O)c1ccc(-c2ccn(C3CC3)n2)cc1 [Example 350, 2-(4-(1-cyclopropyl-1H-pyrazol-3-yl)phenyl)-N-((1R,2R)-1-(8-fluoro-2,3-dihydrobenzo[b][1,4]dioxin-6-yl)-1-hydroxy-3-(pyrrolidin-1-yl)propan-2-yl)-2-oxoacetamide] | < 50 nM
3 | O=C(N[C@H](CN1CCCC1)[C@H](O)c1ccc(OC2CC2)c(Cl)c1)C(=O)c1ccc2c(cnn2-c2ccc(F)cc2)c1 [Example 353, N-((1R,2R)-1-(3-chloro-4-cyclopropoxyphenyl)-1-hydroxy-3-(pyrrolidin-1-yl)propan-2-yl)-2-(1-(4-fluorophenyl)-1H-indazol-5-yl)-2-oxoacetamide] | < 50 nM
4 | O=C(N[C@H](CN1CCCC1)[C@H](O)c1ccc(OC2CC2)c(Cl)c1)C(=O)c1ccc2nn(-c3ccc(F)cc3)cc2c1 [Example 354, N-((1R,2R)-1-(3-chloro-4-cyclopropoxyphenyl)-1-hydroxy-3-(pyrrolidin-1-yl)propan-2-yl)-2-(2-(4-fluorophenyl)-2H-indazol-5-yl)-2-oxoacetamide] | < 50 nM
5 | CC(C)(O)c1ccc(-c2ccc(C(=O)C(=O)N[C@H](CN3CCCC3)[C@H](O)c3cc(F)c4c(c3)OCCO4)cc2)cc1 [Example 356, N-((1R,2R)-1-(8-fluoro-2,3-dihydrobenzo[b][1,4]dioxin-6-yl)-1-hydroxy-3-(pyrrolidin-1-yl)propan-2-yl)-2-(4′-(2-hydroxypropan-2-yl)-[1,1′-biphenyl]-4-yl)-2-oxoacetamide] | < 50 nM
6 | CC(C)c1ccc(-c2ccc(C(=O)C(=O)N[C@H](CN3CCCC3)[C@H](O)c3cc(F)c4c(c3)OCCO4)cc2)cc1 [Example 357, N-((1R,2R)-1-(8-fluoro-2,3-dihydrobenzo[b][1,4]dioxin-6-yl)-1-hydroxy-3-(pyrrolidin-1-yl)propan-2-yl)-2-(4′-isopropyl-[1,1′-biphenyl]-4-yl)-2-oxoacetamide] | < 50 nM

The remaining lines, values ahead:

Row | IC50 | SMILES
7 | < 50 nM | CC(C)n1ccc2ccc(-c3ccc(C(=O)C(=O)N[C@H](CN4CCCC4)[C@H](O)c4ccc(OC5CC5)c(Cl)c4)cc3)cc21 [Example 346, N-((1R,2R)-1-(3-chloro-4-cyclopropoxyphenyl)-1-hydroxy-3-(pyrrolidin-1-yl)propan-2-yl)-2-(4-(1-isopropyl-1H-indo1-6-yl)phenyl)-2-oxoacetamide]
8 | < 50 nM | Cc1c2ccc(-c3ccc(C(=O)C(=O)N[C@H](CN4CCCC4)[C@H](O)c4ccc(OC5CC5)c(Cl)c4)cc3)cc2nn1C [Example 347, N-((1R,2R)-1-(3-chloro-4-cyclopropoxyphenyl)-1-hydroxy-3-(pyrrolidin-1-yl)propan-2-yl)-2-(4-(2,3-dimethyl-2H-indazol-6-yl)phenyl)-2-oxoacetamide]
9 | < 50 nM | O=C(N[C@H](CN1CCCC1)[C@H](O)c1ccc(OC2CC2)c(Cl)c1)C(=O)c1ccc(-c2ccn(C3CC3)n2)cc1 [Example 349, N-((1R,2R)-1-(3-chloro-4-cyclopropoxyphenyl)-1-hydroxy-3-(pyrrolidin-1-yl)propan-2-yl)-2-(4-(1-cyclopropyl-1H-pyrazol-3-yl)phenyl)-2-oxoacetamide]
10 | < 50 nM | CC(C)n1ccc(-c2ccc(C(=O)C(=O)N[C@H](CN3CCCC3)[C@H](O)c3ccc(OC4CC4)c(Cl)c3)cc2)n1 [Example 351, N-((1R,2R)-1-(3-chloro-4-cyclopropoxyphenyl)-1-hydroxy-3-(pyrrolidin-1-yl)propan-2-yl)-2-(4-(1-isopropyl-1H-pyrazol-3-yl)phenyl)-2-oxoacetamide]
11 | < 50 nM | CC(C)n1ccc(-c2ccc(C(=O)C(=O)N[C@H](CN3CCCC3)[C@H](O)c3cc(F)c4c(c3)OCCO4)cc2)n1 [Example 352, N-((1R,2R)-1-(8-fluoro-2,3-dihydrobenzo[b][1,4]dioxin-6-yl)-1-hydroxy-3-(pyrrolidin-1-yl)propan-2-yl)-2-(4-(1-isopropyl-1H-pyrazol-3-yl)phenyl)-2-oxoacetamide]
12 | < 50 nM | C=C(C)c1ccc(-c2ccc(C(=O)C(=O)N[C@H](CN3CCCC3)[C@H](O)c3ccc(OC4CC4)c(Cl)c3)cc2)cc1 [Example 355, N-((1R,2R)-1-(3-chloro-4-cyclopropoxyphenyl)-1-hydroxy-3-(pyrrolidin-1-yl)propan-2-yl)-2-oxo-2-(4′-(prop-1-en-2-yl)-[1,1′-biphenyl]-4-yl)acetamide]
13 | < 50 nM | CC(C)(O)c1ccc(-c2ccc(C(=O)C(=O)N[C@H](CN3CCCC3)[C@H](O)c3ccc(OC4CC4)c(Cl)c3)cc2)cc1 [Example 358, N-((1R,2R)-1-(3-chloro-4-cyclopropoxyphenyl)-1-hydroxy-3-(pyrrolidin-1-yl)propan-2-yl)-2-(4′-(2-hydroxypropan-2-yl)-[1,1′-biphenyl]-4-yl)-2-oxoacetamide]
14 | < 50 nM | O=C(N[C@H](CN1CCCC1)[C@H](O)c1ccc(OC2CC2)c(F)c1)C(=O)c1ccc(-c2ccc(Cl)s2)cc1 [Example 359, 2-(4-(5-chlorothiophen-2-yl)phenyl)-N-((1R,2R)-1-(4-cyclopropoxy-3-fluorophenyl)-1-hydroxy-3-(pyrrolidin-1-yl)propan-2-yl)-2-oxoacetamide]

same assay, conditions: Table 3; MDCK cell lysate; read-out: IC50 (nM) generated from Assay 1

Row | SMILES | IC50
15 | O=C(N[C@H](CN1CCCC1)[C@H](O)c1ccc(OC2CC2)c(Cl)c1)C(=O)c1cc2cc(Cl)ccc2s1 [Example 384, N-((1R,2R)-1-(3-chloro-4-cyclopropoxyphenyl)-1-hydroxy-3-(pyrrolidin-1-yl)propan-2-yl)-2-(5-chlorobenzo[b]thiophen-2-yl)-2-oxoacetamide] | < 50 nM
16 | O=C(N[C@H](CN1CCCC1)[C@H](O)c1ccc(OC2CC2)c(Cl)c1)C(=O)c1ccc(-n2ccnn2)cc1 [Example 385, 2-(4-(1H-1,2,3-triazol-1-yl)phenyl)-N-((1R,2R)-1-(3-chloro-4-cyclopropoxyphenyl)-1-hydroxy-3-(pyrrolidin-1-yl)propan-2-yl)-2-oxoacetamide] | 50 to 5000 nM
17 | O=C(N[C@H](CN1CCCC1)[C@H](O)c1ccc(Cl)cc1)C(=O)c1cc2ccc(Cl)cc2s1 [Example 386, 2-(6-chlorobenzo[b]thiophen-2-yl)-N-((1R,2R)-1-(4-chlorophenyl)-1-hydroxy-3-(pyrrolidin-1-yl)propan-2-yl)-2-oxoacetamide] | 50 to 5000 nM
18 | O=C(N[C@H](CN1CCC1)[C@H](O)c1ccc(OC2CC2)c(F)c1)C(=O)c1cc2cc(Cl)ccc2s1 [Example 387, N-((1R,2R)-3-(azetidin-1-yl)-1-(4-cyclopropoxy-3-fluorophenyl)-1-hydroxypropan-2-yl)-2-(5-chlorobenzo[b]thiophen-2-yl)-2-oxoacetamide] | < 50 nM
19 | O=C(N[C@H](CN1CCCC1)[C@H](O)c1ccc(OC2CC2)cc1)C(=O)c1cc2ccccc2s1 [Example 388, 2-(benzo[b]thiophen-2-yl)-N-((1R,2R)-1-(4-cyclopropoxyphenyl)-1-hydroxy-3-(pyrrolidin-1-yl)propan-2-yl)-2-oxoacetamide] | < 50 nM
20 | O=C(N[C@H](CN1CCCC1)[C@H](O)c1ccc(Cl)cc1)C(=O)c1ccc(-c2ccc(F)cc2)cc1 [Example 389, N-((1R,2R)-1-(4-chlorophenyl)-1-hydroxy-3-(pyrrolidin-1-yl)propan-2-yl)-2-(4′-fluoro-[1,1′-biphenyl]-4-yl)-2-oxoacetamide] | 50 to 5000 nM
21 | O=C(N[C@H](CN1CCCC1)[C@H](O)c1ccc(OC2CC2)cc1)C(F)(F)CCc1ccc2ccccc2c1 [Example 390, N-((1R,2R)-1-(4-cyclopropoxyphenyl)-1-hydroxy-3-(pyrrolidin-1-yl)propan-2-yl)-2,2-difluoro-4-(naphthalen-2-yl)butanamide] | < 50 nM
22 | O=C(N[C@H](CN1CCCC1)[C@H](O)c1ccc(OC2CC2)cc1)C(=O)c1cc2cc(Cl)ccc2s1 [Example 391, 2-(5-chlorobenzo[b]thiophen-2-yl)-N-((1R,2R)-1-(4-cyclopropoxyphenyl)-1-hydroxy-3-(pyrrolidin-1-yl)propan-2-yl)-2-oxoacetamide] | < 50 nM
23 | O=C(N[C@H](CN1CCCC1)[C@H](O)c1ccc(OC2CC2)cc1)C(=O)c1ccc(-c2ccc(Cl)s2)cc1 [Example 392, 2-(4-(5-chlorothiophen-2-yl)phenyl)-N-((1R,2R)-1-(4-cyclopropoxyphenyl)-1-hydroxy-3-(pyrrolidin-1-yl)propan-2-yl)-2-oxoacetamide] | < 50 nM
24 | O=C(N[C@H](CN1CCCC1)[C@H](O)c1ccc(OC2CC2)cc1)C(F)(F)c1ccc(-c2ccc(Cl)s2)cc1 [Example 393, 2-(4-(5-chlorothiophen-2-yl)phenyl)-N-((1R,2R)-1-(4-cyclopropoxyphenyl)-1-hydroxy-3-(pyrrolidin-1-yl)propan-2-yl)-2,2-difluoroacetamide] | < 50 nM
25 | O=C(N[C@H](CN1CCCC1)[C@H](O)c1ccc(OC2CC2)cc1)C(F)(F)c1ccc(-c2ccc(F)cc2)cc1 [Example 394, N-((1R,2R)-1-(4-cyclopropoxyphenyl)-1-hydroxy-3-(pyrrolidin-1-yl)propan-2-yl)-2,2-difluoro-2-(4′-fluoro-[1,1′-biphenyl]-4-yl)acetamide] | < 50 nM

Reference: US10227323B2, “Glucosylceramide synthase inhibitors for the treatment of diseases” (BIOMARIN PHARMACEUTICAL INC., priority 2013, dated 2019)
